Measured values from US4835159A, “Ergoline esters useful as serotonin antagonists” (Eli Lilly and Company, priority 1988, dated 1989).
Counter-ions that a name gives are not always drawn. Like-named read-outs stand apart in the source and are kept apart here.

Molecular target: T1, 5HT2 receptors (Rattus norvegicus, UniProt P14842)
T1 construct: external jugular veins and thoracic aortas were dissected free of connective tissue; from tissue; host or cells: isolated external jugular vein of male Wistar rats
T1 sequence (P14842 whole entry): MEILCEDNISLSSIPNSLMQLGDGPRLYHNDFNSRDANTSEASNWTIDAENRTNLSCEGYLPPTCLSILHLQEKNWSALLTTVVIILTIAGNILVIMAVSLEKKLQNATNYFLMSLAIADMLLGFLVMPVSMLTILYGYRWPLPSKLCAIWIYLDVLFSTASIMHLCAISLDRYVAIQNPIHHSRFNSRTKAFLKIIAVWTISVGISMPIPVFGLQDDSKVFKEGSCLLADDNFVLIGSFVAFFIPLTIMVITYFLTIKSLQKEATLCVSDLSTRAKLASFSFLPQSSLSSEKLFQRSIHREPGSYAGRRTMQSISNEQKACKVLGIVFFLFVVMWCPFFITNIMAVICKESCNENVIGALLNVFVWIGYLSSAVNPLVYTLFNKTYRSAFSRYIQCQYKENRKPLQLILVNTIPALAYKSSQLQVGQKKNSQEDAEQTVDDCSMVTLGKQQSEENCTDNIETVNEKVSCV
Test: Apparent antagonist dissociation constant (KB) for 5HT2 receptors: serotonin-induced contraction of isolated jugular vein
Design: species or system rat (male Wistar)
Source text: Male Wistar rats, each weighing from approximately 150 g to about 300 g, were sacrificed and their external jugular veins and thoracic aortas were dissected free of connective tissue, cannulated in situ and placed in a modified Krebs' bicarbonate buffer in a suitable tissue bath. Two L-shaped 30-gauge stainlesssteel hypodermic needles were inserted into each cannula and the dissected vessels gently pushed onto the needles. One needle was attached with thread to a stationary glass rod and the other to the transducer. The modified Krebs' bicarbonate buffer was composed of the following ingredients in millimoles: sodium chloride, 118.2; potassium chloride, 4.6; calcium chloride dihydrate, 1.6; potassium dihydrogenphosphate, 1.2; magnesium sulfate, 1.2; dextrose, 10.0; sodium bicarbonate, 24.8; and water q.s. to 1000 g. The tissue baths were maintained at 37° C. and were aerated with 95% oxygen-5% carbon dioxide. An initial optimum resting force of 1 g and 4 g was applied to the jugular vein and aorta, respectively. Isometric contractions were recorded as changes in grams of force on a Beckman Dynograph with Statham UC-3 transducers and a microscale accessory attachment. Tissues were allowed to equilibrate 1 to 2 hours before exposure to the test compounds. Control responses to serotonin in the jugular vein and to norepinephrine in the aorta were obtained. The vessels were then incubated with appropriate concentrations of the test compound for one hour. Responses to serotonin or to norepinephrine were then repeated in the presence of the antagonist. Contraction to serotonin was evaluated in the jugular vein since this tissue is known to produce marked responses to serotonin in the absence of alpha receptors. See Cohen and Wiley, J. Pharm. Exp. Ther., 205, 400 (1978). Alpha receptor antagonist activity was evaluated in the aorta.
Apparent antagonist dissociation constants were determined for each concentration of antagonist according to the following equation: […]

Row | SMILES | Kb [nM] | Kb (rat jugular vein, contraction to serotonin, 1 hour incubation with test compound, 37° C., average of the number of trials, read-out: log KB ± standard error (-log KB, serotonin receptor activity) (converted)) [nM]
1 | CC(C)n1cc2c3c(cccc31)[C@H]1C[C@@H](C(=O)OC3CC4CC(O)CC4C3)CN(C)[C@@H]1C2 (stereo partly drawn) [Example 3, Octahydro-5-hydroxy-2-pentalenyl 1-isopropyl-9,10-dihydrolysergate hemihydrate] | 0.631 | –
2 | CC(C)n1cc2c3c(cccc31)[C@H]1C[C@@H](C(=O)OC3CCCC4C(O)CCCC34)CN(C)[C@@H]1C2 (stereo partly drawn) [Example 1, Decahydro-t-hydroxy-1-naphthalenyl 1-isopropyl-9,10-dihydrolysergate maleate] | – | 0.224
3 | CC(C)n1cc2c3c(cccc31)[C@H]1C[C@@H](C(=O)OC3CCC4CCCCC4C3)CN(C)[C@@H]1C2 (stereo partly drawn) [Example 2, Decahydro-2-naphthalenyl 1-isopropyl-9,10-dihydrolysergate maleate] | < 100 | –
